We go through three compounds from article PMC10575960, “Functional characterization of a lytic polysaccharide monooxygenase from Schizophyllum commune that degrades non-crystalline substrates” (Scientific Reports, 2023).

SMILES strings stand for the structures. pKd: −log10 of the molar value.

In one experiment the target is T1, NcLPMO9C (Neurospora crassa, UniProt Q7SHI8).
T1 construct: gene gh61-3; CBM1-containing enzyme, produced in Pichia pastoris as described earlier, copper-saturated
T1 sequence (Q7SHI8 17-359): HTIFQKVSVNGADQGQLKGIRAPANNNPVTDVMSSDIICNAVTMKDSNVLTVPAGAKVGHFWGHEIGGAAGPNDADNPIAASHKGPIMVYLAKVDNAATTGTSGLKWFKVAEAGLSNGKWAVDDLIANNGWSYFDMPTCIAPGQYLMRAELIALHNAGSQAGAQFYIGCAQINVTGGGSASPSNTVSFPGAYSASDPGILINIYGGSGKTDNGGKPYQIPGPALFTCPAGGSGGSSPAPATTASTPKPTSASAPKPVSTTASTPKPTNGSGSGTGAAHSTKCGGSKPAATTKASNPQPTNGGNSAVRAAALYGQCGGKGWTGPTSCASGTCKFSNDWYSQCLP
Kind of experiment: HPAEC-PAD product analysis. The format is biochemical. The following applies: 1 mM substrate, 1 µM LPMO, 1 mM ascorbic acid, 50 mM BisTris-HCl pH 6.5, 40 °C, 16 h.

The target of the next experiment is T2, ScLPMO9A (Schizophyllum commune, UniProt D8Q364).
T2 construct: gene LPMO9A; residues 20-247, pelB signal peptide for periplasmic export, E. coli T7 Express, no tag told; single domain without CBM; 15N-labelled copper-free (apo) protein for NMR
T2 sequence (D8Q364 20-247): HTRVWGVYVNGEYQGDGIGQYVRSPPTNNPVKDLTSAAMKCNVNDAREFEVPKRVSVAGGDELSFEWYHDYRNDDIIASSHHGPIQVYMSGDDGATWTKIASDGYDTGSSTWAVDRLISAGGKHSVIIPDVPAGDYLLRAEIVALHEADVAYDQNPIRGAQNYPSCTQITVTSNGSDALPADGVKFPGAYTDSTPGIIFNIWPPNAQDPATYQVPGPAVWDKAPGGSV
Kind of experiment: NMR titration, […]-HSQC chemical shift perturbation. The format is binding. The settings on record: copper-free apo enzyme, 15N-labelled, 25 mM Tris-HCl pH 7.0, 25 mM NaCl, 2.3% glycerol, 25 °C.

For the compound `OC[C@H]1O[C@@H](O[C@H]2[C@H](O)[C@@H](O)[C@H](O[C@H]3[C@H](O)[C@@H](O)[C@H](O[C@H]4[C@H](O)[C@@H](O)[C@H](O[C@H]5[C@H](O)[C@@H](O)[C@H](O[C@H]6[C@H](O)[C@@H](O)C(O)O[C@@H]6CO)O[C@@H]5CO)O[C@@H]4CO)O[C@@H]3CO)O[C@@H]2CO)[C@H](O)[C@@H](O)[C@@H]1O` (stereo partly shown) [cellohexaose], the HPAEC-PAD product analysis result on NcLPMO9C is “With cellohexaose (Glc6), NcLPMO9C generated primarily Glc4gemGlc and cellotetraose”. The pKd (commonly the negative decadic logarithm of the Kd, by convention in mol/L) on ScLPMO9A (range from four 1H-15N signals) was 4.40 to 5.00.
Take `OC[C@H]1O[C@@H](O[C@H]2[C@H](O)[C@@H](O)[C@H](O[C@H]3[C@H](O)[C@@H](O)[C@H](O[C@H]4[C@H](O)[C@@H](O)[C@H](O[C@H]5[C@H](O)[C@@H](O)C(O)O[C@@H]5CO)O[C@@H]4CO)O[C@@H]3CO)O[C@@H]2CO)[C@H](O)[C@@H](O)[C@@H]1O` (stereo partly shown) [cellopentaose]: at ScLPMO9A (range from two 1H-15N signals), the pKd was 4.30 to 4.52.
For the compound `OC[C@H]1O[C@@H](O[C@H]2[C@H](O)[C@@H](O)[C@H](O[C@H]3[C@H](O)[C@@H](O)[C@H](O[C@H]4[C@H](O)[C@@H](O)C(O)O[C@@H]4CO)O[C@@H]3CO)O[C@@H]2CO)[C@H](O)[C@@H](O)[C@@H]1O` (stereo partly shown) [cellotetraose], the HPAEC-PAD product analysis entry at NcLPMO9C is given as “NcLPMO9C showed limited activity on cellotetraose (Glc4)”.
